Reference: patent publication US12648571B2, “Compositions including antimicrobial polymer-peptide conjugates and uses thereof” (University of Puerto Rico, priority 2020, dated 2026)
No end group written: not given here.

Tests used:
[1] = Circular Dichroism (CD) spectroscopy, secondary structure (K2D3); format: physicochemical; details: 90 μM, TFE/np water 50% v/v, 20° C.
Description: Circular Dichroism spectra were recorded on a Jasco J-1500 CD Spectrometer (Jasco, Inc., Easton, MD). Both peptides (MH5C, MH5C-Cys) were dissolved according to the protocol published by Dennison et al. (2015) with 2,2,2-Trifluoroethanol and np water (TFE/np water mixture; 50% v/v) as co-solvent for this peptide.^26 The final concentration was set to 90 μM and the samples were ultra-centrifuged (29,100 rpm) for 1 hour at 20° C. Subsequently, 400 μL of the supernatant of each peptide was added to a rectangular quartz cell with 1 mm path length to evaluate secondary structures. The wavelength ranged from 250-190 nm and scanning speed was 50 nm/min at 20° C. The data obtained were triplicated and then averaged for each sample. In addition, the thermodynamics and unfolding of peptides was studied with this equipment. This technique was used to observe the secondary structure at wavelength complete spectra as a function of temperature.^27 The temperature range from 20° C. to 90° C. was used.
For the secondary structure estimation, the K2D3 method was utilized as described elsewhere.^40 After obtaining the data, a predictive method that utilizes the information from the database Protein Data Bank (PDB) was employed. With this information, a theoretical prediction of CD, known as DichroCalc was obtained.^41 Then, the method K2D3 was utilized, which can predict secondary structures of peptides and proteins in recorded wavelengths between 200 nm to 240 nm in a non-redundant form. The results of these calculations are the predicted percentages for alpha-helix and beta-strand content.^40 The following equation was employed for this prediction:^42

[2] = test system: P. aeruginosa (ATCC 27853); format: cell-based, Pseudomonas aeruginosa; details: for Minimum Inhibition Concentration (MIC): 24 hours, 1.0×10^8 CFU/mL; for kind of antibacterial effect (growth curves): peptides: after 12 hours of growth; for bacterial growth (growth curves): up to 24 hours, 37° C.
Text: (§1) To determine the antimicrobial activity of the peptides against the pathogenic bacteria P. aeruginosa (ATCC 27853)22 and E. coli (ATCC 25922)23, the following materials were used: Costar 96-well plates Flat Bottom (Sterile Low Evaporation Lid, Corning, USA.), Calgary Biofilm Device (Innovotech Inc.), Glycerol 100% purity. The nutrient agar and broth used were BBL TSA II Trypticase Soy Agar (TSA) and BBL Trypticase Soy Broth (TSB) and were purchased from Becton, Dickinson and Company (BD).
(§2) For these assays, bacteria of interest were thawed, and serial cultured to reach optimal metabolic activity after being defrosted. Optical Density (O.D.) measured with a Genesys 10S UV-VIS Spectrophotometer (O.D.600 nm) was utilized as a measure of bacterial concentration, 1.0×10^8 CFU/mL, as standardized and approved by the Clinical and Laboratory Standards Institute (CLSI).^28 The final concentration of the solvent (vehicle control) was DMSO 10%.
(§3) To create growth curves of the bacteria with and without peptides and to determine the lowest concentration in which these antimicrobial peptides present inhibition of bacterial growth, Minimum Inhibition Concentration (MIC) testing was carried out. After thawing and incubating at 37° C. for 24 hours, and after achieving target O.D., the bacteria were placed on the 96-well plate with lid together with the peptides in various concentrations. Finally, the 96-well plate was taken to the Synergy H1TM Hybrid Multi-Mode Microplate Reader to observe and study the antibacterial effect of the peptides at 37° C. during different time points (0.5 h, 5 h, 12 h, 18 h and 24 h). This process that was used in the same in the evaluation of growth using the MH5C-Cys.

[3] = Dynamic Light Scattering (DLS) of peptides in solution; format: physicochemical; details: 1.0 mg/mL in DMSO/np water 20% v/v; for Polydispersity Index (PDI): individual peak method
Description: To determine the stability of the peptide in solution, DLS was conducted for both peptides (MH5C and MH5C-Cys).
AMPs were dissolved in DMSO and nanopure water (DMSO/np water mixture; 20% v/v) with the final concentration at 1.0 mg/mL. First the samples were ultra-centrifuged (29,100 rpm, 1 hour at 20° C.) and later the size average of these biomolecules was studied in solution using a Malvern Zetasizer Nano instrument (4 mW 632.8 nm laser). The individual peak method was used to determine the Polydispersity Index (PdI).

E. coli (ATCC 25922) = format: cell-based, Escherichia coli; details: for Minimum Inhibition Concentration (MIC): 24 hours, 1.0×10^8 CFU/mL; for kind of antibacterial effect (growth curves): peptides: after 12 hours of growth; for bacterial growth (growth curves): up to 24 hours, 37° C.
Text: as §1, §2, §3

[4] = Zeta potential of peptides; format: physicochemical; details: sample pH 4.5 (MH5C), 5.9 (MH5C-Cys)
Description: Likewise, zeta potential was conducted in order to determine the overall charge of the modified and unmodified peptide. The zeta potential is highly dependent on the pH as it directly affects the overall charge of the colloidal species. Therefore, it was of interest to know the isoelectric point of the peptides. Using ExPASy ProtParam tool (https://web.expasy.org/protparam/), the theoretical isoelectric points of MH5C and MH5C-Cys, were determined at 3.42 in both cases. In this study the pH of each sample, MH5C was 4.5 and 5.9 for the MH5C-Cys. This is an important condition for the stability of the formulation, as no precipitation will occur under the conditions of the experiment.^36 MH5C had positive zeta potential values (46.6±0.9) compared to the MH5C-Cys (−94±4).

P. aeruginosa biofilm [5] = test: MBIC assay (Calgary Biofilm Device); format: cell-based, Pseudomonas aeruginosa; details: 90 μM and 300 μM
Description: (§4) MBIC (Minimum Biofilm Inhibitory Concentration) was determined by the adherence assay using the Calgary Biofilm Device (Innovotech Inc.). In this assay, the bacteria and compounds (MH5C-Cys and both PEG conjugates) were placed together in the assay plate for 72 h to allow growth. Afterwards, CFU (Colony Forming Unit) and optical density measurements for each well were recorded at 650 nm and clear wells and growth inhibition curves were taken as evidence of biofilm inhibition.

E. coli biofilm [6] = format: cell-based, Escherichia coli; details: for Minimum Biofilm Eradication Concentration (MBEC): 24 h challenge
Description: (§5) The assay was conducted according to the MBEC protocol as supplied by the manufacturer. Inoculum of each bacterium was prepared in TSB (Tryptic Soy Broth) to a final density of 1.0×10^6. In each well of the 96 well plate, 150 of the inoculated media was transferred. Assay plates were placed in an incubator for 72 h to allow growth and comparison of biofilms was performed for each bacteria strain. After 72 h, the PEG lid of the MBEC assay was transferred to a ‘challenge’ plate. Essentially, serial dilutions of each conjugated (4 kDa and 7 kDa), antimicrobial peptide, and PEG polymers were prepared in TSB to a final volume in the well plates of 200 μL (control and conjugates at 90 μM, 300 μM, and 500 μM). After exposure of the biofilm to the antimicrobial challenge for 24 h, the PEG lid was removed from the challenge plate, and the optical density measurements for each plate were recorded at 650 nm. Clear wells were taken as evidence of biofilm eradication, and MBEC values were assigned as the lowest concentration at which no growth was observed after 24 h of incubation.^31-32

P. aeruginosa biofilm [7] = format: cell-based, Pseudomonas aeruginosa; details: for Minimum Biofilm Eradication Concentration (MBEC): 24 h challenge
Description: as §5

E. coli biofilm [8] = test: MBIC assay (Calgary Biofilm Device); format: cell-based, Escherichia coli; details: 90 μM and 300 μM
Description: as §4

Row | Substance | α helix structure [1] | β strand structure [1] | Minimum Inhibition Concentration (MIC) [2] | kind of antibacterial effect (growth curves) [2] | bacterial growth (growth curves) [2] | average apparent hydrodynamic diameter [3] | Polydispersity Index (PDI) [3] | Minimum Inhibition Concentration (MIC) (E. coli (ATCC 25922)) | kind of antibacterial effect (growth curves) (E. coli (ATCC 25922)) | bacterial growth (growth curves) (E. coli (ATCC 25922)) | zeta potential [4] | inhibition of biofilm formation (MBIC assay, CFU) (P. aeruginosa biofilm [5]) | time during which bacterial growth was not allowed (MBEC assay) (E. coli biofilm [6]) | Minimum Biofilm Eradication Concentration (MBEC) (E. coli biofilm [6]) | time during which bacterial growth was not allowed (MBEC assay) (P. aeruginosa biofilm [7]) | Minimum Biofilm Eradication Concentration (MBEC) (P. aeruginosa biofilm [7]) | inhibition of biofilm formation (MBIC assay, CFU) (E. coli biofilm [8]) | kind of effect in MBEC assay (E. coli biofilm [6]; 90 μM and 300 μM, 24 h) | kind of effect in MBEC assay (P. aeruginosa biofilm [7]; 90 μM, 180 μM and 300 μM, 24 h)
1 | ILGPVLGLVSDTLDDVLGIL-OH [MH5C] | 95.22% | 0.02% | 90 µM | bacteriostatic effect | did not allow bacterial growth | 0.72 ± 0.11 nm·days | 0.03 | 90 µM | bacteriostatic effect | did not allow bacterial growth | 46.6±0.9 |  |  |  |  |  |  |  | 
2 | ILGPVLGLVSDTLDDVLGILC-OH [MH5C-Cys] | 95.36% | 0.02% | 90 µM | bacteriostatic effect | did not allow bacterial growth | 0.52 ± 0.44 nm·days | 0.01 | 90 µM | bacteriostatic effect | did not allow bacterial growth | −94±4 | does not possess a significant inhibition | 8 to 10 h | 500 µM | 8 to 10 h | 500 µM | does not possess a significant inhibition |  | 
3 | KRWRIRVRVIRKC [Tet-20, KRWRIRVRVIRKC] |  |  | 40 µM |  |  |  |  | 15 µM |  |  |  |  |  | 300 µM |  | 300 µM |  | bactericidal effect | bactericidal effect
